Source: US20260034091A1, “Compositions and Methods for Treating Metabolic Disorders” (The Regents of the University of California, priority 2022, published 2026)

Test system: CDAHFD-induced late stage NAFLD/NASH in mice
Test: Benchmark study against Firsocostat and Fenofibrate in CDAHFD-induced late stage NAFLD/NASH
Format: in vivo, C57BL/6J male mice
Details: QD oral gavage four weeks; TOFA 250 mg/kg, Firsocostat 5 mg/kg, Fenofibrate 50 mg/kg
Protocol: Six-week-old C57BL/6J male mice were fed with a L-amino acid diet with 60 kcal % fat with 0.1% methionine and no added choline (CDAHFD; Research Diets A06071302i) for eight weeks. Mice were randomly assigned to treatment groups of either a vehicle (control), 250 mg/kg of TOFA, 5 mg/kg of Firsocostat (Gilead Sciences), 50 mg/kg of Fenofibrate, or a combined dose of 5 mg/kg Firsocostat and 50 mg/kg Fenofibrate. All treatments were delivered QD by oral gavage for an additional four weeks. Mice weights and food intake were monitored during the treatment time course. Upon study termination at 12 weeks, liver and serum samples were collected. Serum liver damage biomarkers, ALT and AST, were measured by commercially available kits (abcam 105134 and abcam 105135, respectively). Hepatic and serum triglyceride levels were measured from a commercially available kit (abcam65336). Total RNA was extracted from liver tissues (Qiagen RNeasy kit 74106), and cDNA was prepared (BioRAD iScript™ Reverse Transcription) according to manufacturer's protocols. Quantitative PCR (qPCR) was performed with fast SYBR Green Mix (ThermoFisher A25742) on the QuantStudio6 System (Applied Biosciences). Protein expression levels of liver samples were measured by western blot using antibodies against VLDLR (AF2258, 1:2000), CPT1A (CST12252, 1:1000) and Histone H3 (CST9715, 1:1000). Membranes were developed using a HRP secondary antibody (1:5000) and visualized using an enhanced chemiluminescent HRP substrate (Thermo34577). Additional liver samples were fixed in 4% paraformaldehyde and embedded in paraffin blocks for sectioning and subsequently stained with hematoxylin and eosin (H&E).

## COc1ccccc1[C@H](Cn1c(=O)n(C(C)(C)C(=O)O)c(=O)c2c(C)c(-c3ncco3)sc21)OC1CCOCC1 [Firsocostat, reference compound]
  serum ALT: decreases
  serum AST: decreases
